The supplement of paper PMC6723410

System: GUMC-403
Experiment: viability at highest tested concentration (max response) relative to DMSO (% of DMSO control); higher = less cytotoxic
Conditions: library / dose series: MIPE library, 11-point 1:3 dilution, 48 h
Summary of the method: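 Conditionally reprogrammed GUMC-403 papilloma cells from a patient were plated at 700/well in 5 μL F + Y medium in 1536-well plates and left overnight at 37 °C. A pin tool then added 23 nL of library compounds as an 11-point 1:3 series, for 48 h. CellTiter-Glo luminescence was read on a ViewLux and scaled with vehicle wells set to 100% and empty wells to 0%. Each value gives viability at the highest tested concentration relative to vehicle control.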

NC/1=N/C(=O)N(C[C@@H](CO)OC[P](O)(O)=O)/C=C1
viability (top concentration 23 µM): 104

CCc1cc(C(N)=S)ccn1
viability (top concentration 46.1 µM): 120

CC[C@H]1OC(=O)[C@H](C)[C@@H](O[C@H]2C[C@@](C)(OC)[C@@H](O)[C@H](C)O2)[C@H](C)[C@@H](O[C@@H]2O[C@H](C)C[C@H](N(C)C)[C@H]2O)[C@](C)(O)C[C@@H](C)CN(C)[C@H](C)[C@@H](O)[C@]1(C)O
viability (top concentration 46.1 µM): 109

CC(=O)OC\C1=C(\[N@]2[C@@H](SC1)[C@H](N)C2=O)C(O)=O
viability (top concentration 46.1 µM): 143

CNC(=O)c1cc(Oc2ccc(NC(=O)Nc3ccc(Cl)c(C(F)(F)F)c3)cc2)ccn1
viability (top concentration 46.1 µM): 87

O=C1CCCC(=O)C1C(=O)c1ccc(C(F)(F)F)cc1[N+](=O)[O-]
viability (top concentration 46.1 µM): 104

Cn1cc(/C=C/C(=O)c2cccc(F)c2)cc1/C=C/C(=O)NO
viability (top concentration 46.1 µM): 103

CC1=CC=C2\N=C/3N(CC[C@@]3(O)C(=O)C2=C1)C4=CC=CC=C4
viability (top concentration 46.1 µM): 104

CNC[C@H](O)c1ccc(O)c(O)c1
viability (top concentration 92.2 µM): 104

Cc1cc(O)c2c3c4c(cc(O)c13)C(C)(C)C(=O)c1c(O)cc(O)c(c1-4)C2=O
viability (top concentration 46.1 µM): 104

C[C@H](NC(=O)c1sccc1OCc1ccc(Cl)cc1)c1ccccc1
viability (top concentration 46.1 µM): 95.3

CCN[C@H]1C[C@H](C)[S+](=O)([O-])c2sc([S+](N)(=O)[O-])cc21
viability (top concentration 46.1 µM): 103

CC1(C)O[C@@H]2C[C@H]3[C@@H]4CCC5=CC(=O)C=C[C@]5(C)[C@H]4[C@@H](O)C[C@]3(C)[C@]2(C(=O)CO)O1
viability (top concentration 46.1 µM): 147

CN1C(=O)C[C@H](C(=O)N[C@@H](Cc2cnc[nH]2)C(=O)N2CCC[C@H]2C(N)=O)NC1=O
viability (top concentration 46.1 µM): 103

CCCCCN(C)CCC(O)(P(=O)([O-])O)P(=O)(O)O
viability (top concentration 46.1 µM): 106

CC1(C)CNc2cc(NC(=O)c3cccnc3NCc3ccncc3)ccc21
viability (top concentration 46.1 µM): 117

COC1=CC=C2CN(C)CC[C@@]34\C=C/[C@H](O)C[C@@H]3OC1=C24
viability (top concentration 46.1 µM): 122

CC(C)C[C@H](CN)CC(=O)O
viability (top concentration 46.1 µM): 117

CC(=O)O[C@@]1(CC[C@H]2[C@@H]3\C=C(Cl)/C4=C/C(=O)[C@@H]5C[C@@H]5[C@]4(C)[C@H]3CC[C@]12C)C(C)=O
viability (top concentration 46.1 µM): 76.4

COCCCOc1cc(C[C@@H](C[C@H](N)[C@@H](O)C[C@H](C(=O)NCC(C)(C)C(N)=O)C(C)C)C(C)C)ccc1OC
viability (top concentration 46.1 µM): 130

CC(C)Cn1cnc2c(N)nc3ccccc3c21
viability (top concentration 46.1 µM): 116

Cc1cc2c(F)c(Oc3ncnn4cc(OC[C@@H](C)O)c(C)c34)ccc2[nH]1
viability (top concentration 46.1 µM): 118

CCOc1cc(N)c(Cl)cc1C(=O)NCC1CN(Cc2ccc(F)cc2)CCO1 (stereo not drawn)
viability (top concentration 46.1 µM): 85.7

CCOC(=O)c1c(CSc2ccccc2)n(C)c2cc(Br)c(O)c(CN(C)C)c12
viability (top concentration 46.1 µM): 105

Cc1c(C)n(Cc2ccc(-c3ccccc3C(=O)O)cc2)c2ccc(C(=O)N[C@@H](C)c3ccc([N+](=O)[O-])cc3)cc12
viability (top concentration 46.1 µM): 102

C[C@](N)(Cc1ccc(O)c(O)c1)C(=O)O
viability (top concentration 46.1 µM): 89.6

N#Cc1c(NC(=O)c2cccc3ccccc23)sc2c1CCCC2
viability (top concentration 46.1 µM): 109

Cc1cnc(Nc2ccc(F)cc2Cl)nc1-c1c[nH]c(C(=O)N[C@H](CO)c2cccc(Cl)c2)c1
viability (top concentration 46.1 µM): 80.9

C=C1C(=O)[C@@]23C(CC[C@@H]1[C@H]2O)[C@@]12CO[C@]3(O)[C@@H](O)[C@@H]1C(C)(C)CC[C@@H]2O (stereo partly drawn)
viability (top concentration 46.1 µM): 119

COc1ccccc1[C@H](c1cccc2ccccc12)[C@@](C)(C#N)C(=O)N1CCC(c2cccc(C(F)(F)F)c2)CC1
viability (top concentration 46.1 µM): 86.3

Cc1cccc(CN2CCN(C(c3ccccc3)c3ccc(Cl)cc3)CC2)c1 (stereo not drawn)
viability (top concentration 46.1 µM): 87.2

COC1=CC=C2[C@H]3CC[C@]4(C)[C@H](CC[C@H]4[C@@H]3CCC2=C1)NCCCCCCN5C(=O)\C=C/C5=O
viability (top concentration 46.1 µM): 129

O=C(Cc1ccc(-c2ccc(OCCN3CCOCC3)cc2)cn1)NCc1ccccc1
viability (top concentration 46.1 µM): 104

Clc1ccc(CCC(Cn2ccnc2)Sc2c(Cl)cccc2Cl)cc1 (stereo not drawn)
viability (top concentration 46.1 µM): 97

CCN(CC)CCCCNc1nc2cc(Cl)c(Cl)cc2nc1-c1ccc(-c2cccs2)s1
viability (top concentration 46.1 µM): 92.1

Nc1cc(N2CCCCC2)nc(N)[n+]1[O-]
viability (top concentration 46.1 µM): 91.1

NC1=C(Cl)C(=CC=N1)OC2=C(F)C=C(NC(=O)\C3=C\N\C=C(C3=O)\C4=CC=C(F)C=C4)C=C2
viability (top concentration 46.1 µM): 108

CC(C)(Cc1ccc2ccccc2c1)NC[C@@H](O)COc1cccc(Cl)c1C#N
viability (top concentration 46.1 µM): 106

CCCCC(C)(C)[C@H](O)/C=C/[C@H]1[C@H](O)CC(=O)[C@@H]1C/C=C\CCCC(=O)O
viability (top concentration 46.1 µM): 104

CN(C)C(=O)c1ccc([S+](=O)([O-])c2ccc(NC(=O)[C@@](C)(O)C(F)(F)F)c(Cl)c2)cc1
viability (top concentration 46.1 µM): 113

OC[C@H]1O[C@H](C[C@@H]1O)N2\C=C(\I)C(=O)NC2=O
viability (top concentration 46.1 µM): 127

O=C(Nc1nnc(-c2ccco2)o1)c1cc(-c2ccccc2)nc2ccccc12
viability (top concentration 46.1 µM): 89.1

CC1=C(C=CC=C1)N2\C(=N/C3=C(C(=CC=C3)C)C2=O)C[N]4N=CC5=C4N=CN=C5N
viability (top concentration 46.1 µM): 85.3

NC(=O)Nc1sc(-c2ccc(F)cc2)cc1C(N)=O
viability (top concentration 46.1 µM): 51.7

O=C1[C@H](Cc2ccc(O)cc2)N2C(=O)CCN(C(=O)NCc3ccccc3)[C@H]2CN1Cc1cccc2ccccc12
viability (top concentration 46.1 µM): 78.2

ClC1=C(N\C2=N\CCN2)C3=NSN=C3C=C1
viability (top concentration 46.1 µM): 129

CO[C@H]1O[C@@H]2O[C@@]3(C)CC[C@H]4[C@H](C)CC[C@@H]([C@H]1C)[C@@]24OO3
viability (top concentration 46.1 µM): 116

CCCCCCNC(=O)N1\C=C(F)/C(=O)NC1=O
viability (top concentration 46.1 µM): 106

C[C@H](NC(=O)Cc1cc(F)cc(F)c1)C(=O)N[C@@H]1C(=O)N(C)c2ccccc2-c2ccccc21
viability (top concentration 46.1 µM): 108

COc1cc2nccc(Oc3ccc(NC(=O)Nc4cc(C)on4)c(Cl)c3)c2cc1OC
viability (top concentration 46.1 µM): 73.5

NNCCc1ccccc1
viability (top concentration 46.1 µM): 109

O=C(NCc1ccccc1)c1csc(Nc2ccncn2)n1
viability (top concentration 46.1 µM): 110

O=C(/C=C/c1ccc(/C=C/C(=O)Nc2ccc(C3=NCCN3)cc2)cc1)Nc1ccc(C2=NCCN2)cc1
viability (top concentration 46.1 µM): 117

NC[C@H]1O[C@H](O[C@@H]2[C@H](O)[C@@H](O[C@H]3O[C@H](CO)[C@@H](O)[C@H](N)[C@H]3O)[C@H](N)C[C@@H]2N)[C@H](O)[C@@H](O)[C@@H]1O
viability (top concentration 46.1 µM): 103

NCCCC(O)(P(=O)(O)O)P(=O)(O)O.O.O.O.[Na+]
viability (top concentration 46.1 µM): 111

C=C1C[C@@]2(O)O[C@@]3(C[C@H]2C(C)C)[C@@H](C)CC[C@@H]13
viability (top concentration 46.1 µM): 127

CNC[C@H](O)c1cccc(O)c1
viability (top concentration 46.1 µM): 139

COC1=CC2=NC=CC(=C2C=C1)OC3=CN=C(NC(=O)C/4=C(C)/N(CC(C)(C)O)N(C4=O)C5=CC=CC=C5)C=C3
viability (top concentration 46.1 µM): 84.6

C[S+](=O)([O-])c1ccc(-c2cnc(N)c(C(=O)Nc3ccccc3)n2)cc1
viability (top concentration 46.1 µM): 132

CO[C@H]1C[C@@H]2CC[C@@H](C)[C@@](O)(O2)C(=O)C(=O)N2CCCC[C@H]2C(=O)O[C@H]([C@H](C)C[C@@H]2CC[C@@H](OP(C)(C)=O)[C@H](OC)C2)CC(=O)[C@H](C)/C=C(\C)[C@@H](O)[C@@H](OC)C(=O)[C@H](C)C[C@H](C)/C=C/C=C/C=C/1C
viability (top concentration 46.1 µM): 104

CN(C)Cc1ccc(-c2nc3cccc4c3n2CCNC4=O)cc1
viability (top concentration 46.1 µM): 88.8

CC(C)C1NC(=O)C(NC(=O)C2=C3\N=C\4/C(=C(C)\C(=O)\C(=C4C(=O)NC5C(C)OC(=O)C(C(C)C)N(C)C(=O)CN(C)C(=O)C6CCCN6C(=O)C(NC5=O)C(C)C)N)OC3=C(C)C=C2)C(C)OC(=O)C(C(C)C)N(C)C(=O)CN(C)C(=O)C7CCCN7C1=O (stereo not drawn)
viability (top concentration 46.1 µM): 12.2

OC1=C(C=CC=C1)C2=CC=C(C=C2)C3=CSC4=C3C(=C(/C#N)C(=O)N4)/O
viability (top concentration 46.1 µM): 125

OC[C@H]1O[C@@H]2[C@@H](OC\3=N\C(=N)\C=C/[N@@]23)[C@@H]1O
viability (top concentration 46.1 µM): 124

O=C(O)/C=C/c1ccc(Cn2ccnc2)cc1
viability (top concentration 46.1 µM): 124

O=C(O)CCCc1c[nH]c2ccccc12
viability (top concentration 46.1 µM): 107

COc1cc2c(cc1-c1c(C)noc1C)ncc1[nH]c(=O)n([C@H](C)c3ccccn3)c12
viability (top concentration 46.1 µM): 69.1

COC1=CC=CC2=C1C(=NC(=N2)C3=CC=CS3)NN4C(=O)\C=C(C)/C4=O
viability (top concentration 46.1 µM): 80

O=C(Nc1cccc(Cl)c1)Nc1ncc(CCNc2ncnc3ccsc23)s1
viability (top concentration 46.1 µM): 116

C1CN\2C[C@@H](\N=C2S1)C3=CC=CC=C3
viability (top concentration 46.1 µM): 125

NC/1=N/C2=C([NH]C=N2)C(=S)N1
viability (top concentration 46.1 µM): 97.1

COc1cc2nccc(Oc3ccc(NC(=O)NC4CC4)c(Cl)c3)c2cc1C(N)=O
viability (top concentration 46.1 µM): 89.9

CN[S+](=O)([O-])Cc1ccc2[nH]cc(CCN(C)C)c2c1
viability (top concentration 46.1 µM): 126

COC\1=C(/OC)C(=O)\C(=C(C)/C1=O)CCCCCCCCCCO
viability (top concentration 46.1 µM): 112

NCCCCCC(=O)O
viability (top concentration 46.1 µM): 130

CCCCCCCc1ccc(CCc2cccc(O)c2C(=O)O)cc1
viability (top concentration 46.1 µM): 108

OC(=O)CNC(=O)\C1=C(/O)C2=CC=CC=C2N(CC3=CC=CC=C3)C1=O
viability (top concentration 46.1 µM): 108

O=C(CCCCCCNC(=O)c1cnc(N(c2ccccc2)c2ccccc2)nc1)NO
viability (top concentration 46.1 µM): 117

O=c1cc(O)c(Cl)c[nH]1
viability (top concentration 46.1 µM): 106

CCC1=C2C=C(OC(=O)N3CCC(CC3)N4CCCCC4)C=CC2=NC\5=C1CN6C(=O)\C7=C(/C=C56)[C@@](O)(CC)C(=O)OC7
viability (top concentration 46.1 µM): 56.1

CCn1c(-c2nonc2N)nc2cncc(CNC3CCNCC3)c21
viability (top concentration 46.1 µM): 121

O=C(NOC[C@H](O)CO)c1ccc(F)c(F)c1Nc1ccc(I)cc1F
viability (top concentration 46.1 µM): 101

CC(C)(C)C(=O)OCOP(=O)(COCCn1cnc2c(N)ncnc21)OCOC(=O)C(C)(C)C
viability (top concentration 46.1 µM): 93
